The values below are quoted from earlier work in US9850267B2, “Crystalline fosaprepitant dicyclohexylamine salt and its preparation” (Navinta, LLC, priority 2015, dated 2017).

For this series the following is noted: white to off-white amorphous powder.

In the case of `C[C@@H](O[C@H]1OCCN(Cc2nc(O)n(P(=O)(O)O)n2)[C@H]1c1ccc(F)cc1)c1cc(C(F)(F)F)cc(C(F)(F)F)c1` [Fosaprepitant dimeglumine, fosaprepitant dimeglumine], the solubility in water result is “freely soluble in water”.
